According to ChEMBL document CHEMBL3991601, “The target landscape of clinical kinase drugs” (Science, 2017):
Activity calls are given as the source filed them. Rule as the data show it, for most assays here: actives have a measured Kd and inactives only a lower limit.

Columns and labels:
[1] = target: Calcium/calmodulin-dependent protein kinase kinase 2 (Homo sapiens, UniProt Q96RR4)
[2] = target: T1, Long-chain-fatty-acid--CoA ligase 5 (Homo sapiens, UniProt Q9ULC5)
T1 sequence (Q9ULC5 whole entry): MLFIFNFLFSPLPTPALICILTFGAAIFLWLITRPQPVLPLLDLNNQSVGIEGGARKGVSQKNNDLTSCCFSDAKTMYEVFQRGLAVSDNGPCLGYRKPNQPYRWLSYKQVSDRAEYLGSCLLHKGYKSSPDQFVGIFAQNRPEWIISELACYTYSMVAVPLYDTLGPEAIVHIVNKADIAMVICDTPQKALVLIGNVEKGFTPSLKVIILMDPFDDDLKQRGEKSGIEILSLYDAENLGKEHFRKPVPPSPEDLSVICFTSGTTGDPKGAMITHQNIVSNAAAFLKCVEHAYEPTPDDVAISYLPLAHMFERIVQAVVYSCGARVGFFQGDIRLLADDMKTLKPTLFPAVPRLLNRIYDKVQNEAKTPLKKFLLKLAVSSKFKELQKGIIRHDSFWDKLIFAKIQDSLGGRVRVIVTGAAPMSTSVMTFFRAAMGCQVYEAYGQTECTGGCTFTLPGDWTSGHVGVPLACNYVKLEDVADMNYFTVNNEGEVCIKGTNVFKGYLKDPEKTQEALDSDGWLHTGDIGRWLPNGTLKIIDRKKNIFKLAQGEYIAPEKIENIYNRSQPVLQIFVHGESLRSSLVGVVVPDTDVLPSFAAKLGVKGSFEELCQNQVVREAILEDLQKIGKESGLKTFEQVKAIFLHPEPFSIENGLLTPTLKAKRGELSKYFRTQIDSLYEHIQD

[3] = target: Mitogen-activated protein kinase kinase kinase 1 (Homo sapiens, UniProt Q13233)
Chain of Mitogen-activated protein kinase kinase kinase 1 (Q13233 whole entry): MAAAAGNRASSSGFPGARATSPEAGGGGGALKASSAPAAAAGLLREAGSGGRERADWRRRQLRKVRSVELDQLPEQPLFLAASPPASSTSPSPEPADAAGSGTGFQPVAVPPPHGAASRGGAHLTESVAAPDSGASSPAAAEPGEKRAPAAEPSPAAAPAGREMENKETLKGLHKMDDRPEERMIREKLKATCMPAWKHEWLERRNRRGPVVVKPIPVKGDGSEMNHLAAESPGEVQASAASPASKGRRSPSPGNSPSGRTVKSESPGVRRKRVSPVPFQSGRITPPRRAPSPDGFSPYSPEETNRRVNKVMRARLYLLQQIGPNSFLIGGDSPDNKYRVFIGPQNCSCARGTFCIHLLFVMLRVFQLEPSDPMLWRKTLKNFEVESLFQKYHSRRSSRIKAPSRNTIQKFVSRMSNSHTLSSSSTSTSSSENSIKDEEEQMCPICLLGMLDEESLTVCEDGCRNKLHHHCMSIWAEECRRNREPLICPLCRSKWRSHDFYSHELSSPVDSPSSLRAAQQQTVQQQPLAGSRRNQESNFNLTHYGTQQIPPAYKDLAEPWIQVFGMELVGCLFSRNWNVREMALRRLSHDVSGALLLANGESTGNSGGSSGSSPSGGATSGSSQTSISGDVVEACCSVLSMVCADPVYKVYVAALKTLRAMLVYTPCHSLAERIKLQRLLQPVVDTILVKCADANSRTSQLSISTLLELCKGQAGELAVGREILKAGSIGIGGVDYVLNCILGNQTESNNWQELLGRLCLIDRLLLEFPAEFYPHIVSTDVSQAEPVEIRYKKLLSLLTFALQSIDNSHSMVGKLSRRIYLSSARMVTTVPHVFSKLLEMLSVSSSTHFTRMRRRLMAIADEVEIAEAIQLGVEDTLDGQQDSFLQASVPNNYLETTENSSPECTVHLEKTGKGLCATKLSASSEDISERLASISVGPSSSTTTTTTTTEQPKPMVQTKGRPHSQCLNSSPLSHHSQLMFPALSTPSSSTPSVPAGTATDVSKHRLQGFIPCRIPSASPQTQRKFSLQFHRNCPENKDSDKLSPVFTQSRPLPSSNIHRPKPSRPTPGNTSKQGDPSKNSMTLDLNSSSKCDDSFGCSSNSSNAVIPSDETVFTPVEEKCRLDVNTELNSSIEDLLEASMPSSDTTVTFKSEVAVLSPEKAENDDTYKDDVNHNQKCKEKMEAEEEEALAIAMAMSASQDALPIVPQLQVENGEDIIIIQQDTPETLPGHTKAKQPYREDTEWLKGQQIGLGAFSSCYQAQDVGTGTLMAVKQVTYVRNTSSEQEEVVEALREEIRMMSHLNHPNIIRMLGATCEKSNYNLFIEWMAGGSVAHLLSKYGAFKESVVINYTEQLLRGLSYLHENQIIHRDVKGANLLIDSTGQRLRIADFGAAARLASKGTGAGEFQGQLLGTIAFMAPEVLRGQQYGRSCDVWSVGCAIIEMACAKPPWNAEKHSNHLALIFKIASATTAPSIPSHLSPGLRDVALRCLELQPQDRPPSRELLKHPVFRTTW

Activin receptor type-1B = target: T2, Activin receptor type-1B (Homo sapiens, UniProt P36896)
T2 sequence (P36896 whole entry): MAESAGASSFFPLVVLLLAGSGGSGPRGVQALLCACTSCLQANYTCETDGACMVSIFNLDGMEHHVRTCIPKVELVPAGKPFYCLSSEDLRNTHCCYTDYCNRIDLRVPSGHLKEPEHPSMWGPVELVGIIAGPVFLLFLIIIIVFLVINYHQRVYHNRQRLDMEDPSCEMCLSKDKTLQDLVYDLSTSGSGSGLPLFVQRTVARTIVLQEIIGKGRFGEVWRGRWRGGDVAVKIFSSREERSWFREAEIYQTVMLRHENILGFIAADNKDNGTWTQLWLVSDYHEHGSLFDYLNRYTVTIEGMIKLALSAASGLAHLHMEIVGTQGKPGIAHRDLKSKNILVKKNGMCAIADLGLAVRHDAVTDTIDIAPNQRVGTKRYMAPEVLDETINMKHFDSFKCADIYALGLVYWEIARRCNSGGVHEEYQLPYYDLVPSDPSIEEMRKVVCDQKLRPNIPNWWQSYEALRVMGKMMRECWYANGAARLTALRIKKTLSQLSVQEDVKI

[4] = target: Mitogen-activated protein kinase kinase kinase 4 (Homo sapiens, UniProt Q9Y6R4)
Chain of Mitogen-activated protein kinase kinase kinase 4 (Q9Y6R4 whole entry): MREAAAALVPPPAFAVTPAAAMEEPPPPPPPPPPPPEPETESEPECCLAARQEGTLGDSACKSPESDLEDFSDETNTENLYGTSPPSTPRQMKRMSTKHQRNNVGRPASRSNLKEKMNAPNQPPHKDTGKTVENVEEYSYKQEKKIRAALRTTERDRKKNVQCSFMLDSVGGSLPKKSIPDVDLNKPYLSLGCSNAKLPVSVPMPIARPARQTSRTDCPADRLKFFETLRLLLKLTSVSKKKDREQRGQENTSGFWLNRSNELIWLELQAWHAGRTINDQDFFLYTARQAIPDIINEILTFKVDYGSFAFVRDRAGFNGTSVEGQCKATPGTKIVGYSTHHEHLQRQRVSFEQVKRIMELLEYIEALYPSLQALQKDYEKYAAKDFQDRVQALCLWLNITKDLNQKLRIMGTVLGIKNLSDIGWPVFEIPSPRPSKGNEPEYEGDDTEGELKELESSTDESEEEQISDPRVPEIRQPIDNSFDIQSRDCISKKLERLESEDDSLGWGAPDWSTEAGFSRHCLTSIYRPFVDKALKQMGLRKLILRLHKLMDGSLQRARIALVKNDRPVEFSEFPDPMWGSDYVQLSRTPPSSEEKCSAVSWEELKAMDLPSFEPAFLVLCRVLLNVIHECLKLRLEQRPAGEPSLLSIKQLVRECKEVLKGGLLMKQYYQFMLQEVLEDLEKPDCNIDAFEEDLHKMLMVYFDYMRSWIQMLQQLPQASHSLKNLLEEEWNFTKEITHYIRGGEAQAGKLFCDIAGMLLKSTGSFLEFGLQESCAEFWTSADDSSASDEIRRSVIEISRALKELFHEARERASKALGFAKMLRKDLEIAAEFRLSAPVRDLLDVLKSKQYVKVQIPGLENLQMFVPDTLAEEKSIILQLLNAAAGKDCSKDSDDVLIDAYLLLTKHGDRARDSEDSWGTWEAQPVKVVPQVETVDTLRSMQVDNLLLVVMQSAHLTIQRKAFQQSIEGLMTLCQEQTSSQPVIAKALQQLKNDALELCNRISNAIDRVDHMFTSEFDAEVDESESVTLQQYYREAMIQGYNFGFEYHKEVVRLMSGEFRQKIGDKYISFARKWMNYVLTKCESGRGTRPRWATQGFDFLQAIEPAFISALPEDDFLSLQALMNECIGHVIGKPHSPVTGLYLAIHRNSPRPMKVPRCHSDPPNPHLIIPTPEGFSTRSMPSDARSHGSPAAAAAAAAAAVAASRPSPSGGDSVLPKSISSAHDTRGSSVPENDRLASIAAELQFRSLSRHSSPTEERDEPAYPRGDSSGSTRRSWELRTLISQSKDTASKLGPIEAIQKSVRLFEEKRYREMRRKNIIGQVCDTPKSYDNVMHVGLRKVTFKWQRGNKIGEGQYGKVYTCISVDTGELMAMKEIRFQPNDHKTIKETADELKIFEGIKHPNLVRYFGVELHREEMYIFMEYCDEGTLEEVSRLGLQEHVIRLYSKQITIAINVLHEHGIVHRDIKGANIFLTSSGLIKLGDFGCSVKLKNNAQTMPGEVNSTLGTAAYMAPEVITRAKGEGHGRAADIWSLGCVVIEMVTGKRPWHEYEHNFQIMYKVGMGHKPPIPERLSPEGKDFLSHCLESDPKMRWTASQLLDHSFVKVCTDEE

[5] = target: Calcium/calmodulin-dependent protein kinase type II subunit delta (Homo sapiens, UniProt Q13557)
Chain of Calcium/calmodulin-dependent protein kinase type II subunit delta (Q13557 whole entry): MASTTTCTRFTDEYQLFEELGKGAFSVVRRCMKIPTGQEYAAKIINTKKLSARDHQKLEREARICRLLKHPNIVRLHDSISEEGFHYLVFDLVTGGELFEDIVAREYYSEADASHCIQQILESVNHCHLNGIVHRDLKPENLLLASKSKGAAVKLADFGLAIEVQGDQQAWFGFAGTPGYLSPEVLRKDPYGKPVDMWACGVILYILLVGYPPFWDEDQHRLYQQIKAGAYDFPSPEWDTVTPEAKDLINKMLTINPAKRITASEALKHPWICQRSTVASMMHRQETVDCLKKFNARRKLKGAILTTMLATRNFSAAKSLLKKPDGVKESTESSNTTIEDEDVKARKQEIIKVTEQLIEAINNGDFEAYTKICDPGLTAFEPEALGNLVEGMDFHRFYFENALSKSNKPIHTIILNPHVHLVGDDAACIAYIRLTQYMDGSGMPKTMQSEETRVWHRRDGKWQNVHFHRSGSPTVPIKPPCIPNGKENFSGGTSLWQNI

[6] = target: T3, Bifunctional phosphoribosylaminoimidazole carboxylase/phosphoribosylaminoimidazole succinocarboxamide synthetase (Homo sapiens, UniProt P22234)
T3 sequence (P22234 whole entry): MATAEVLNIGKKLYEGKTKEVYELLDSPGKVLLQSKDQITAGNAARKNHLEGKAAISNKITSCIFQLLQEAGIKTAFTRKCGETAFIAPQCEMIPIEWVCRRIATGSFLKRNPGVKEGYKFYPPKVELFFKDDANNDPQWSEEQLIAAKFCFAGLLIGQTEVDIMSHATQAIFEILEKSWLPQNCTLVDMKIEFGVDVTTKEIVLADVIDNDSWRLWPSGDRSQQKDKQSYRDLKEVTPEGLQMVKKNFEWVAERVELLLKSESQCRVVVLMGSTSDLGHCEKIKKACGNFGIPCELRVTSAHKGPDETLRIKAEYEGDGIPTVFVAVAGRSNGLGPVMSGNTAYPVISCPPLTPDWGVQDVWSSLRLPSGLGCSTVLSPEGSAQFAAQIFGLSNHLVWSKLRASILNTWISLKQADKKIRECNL

[7] = target: Ribosomal protein S6 kinase alpha-4 (Homo sapiens, UniProt O75676)
Ephrin type-A receptor 5 = Ephrin type-A receptor 5 (Homo sapiens, UniProt P54756)
Chain of Ephrin type-A receptor 5 (P54756 whole entry): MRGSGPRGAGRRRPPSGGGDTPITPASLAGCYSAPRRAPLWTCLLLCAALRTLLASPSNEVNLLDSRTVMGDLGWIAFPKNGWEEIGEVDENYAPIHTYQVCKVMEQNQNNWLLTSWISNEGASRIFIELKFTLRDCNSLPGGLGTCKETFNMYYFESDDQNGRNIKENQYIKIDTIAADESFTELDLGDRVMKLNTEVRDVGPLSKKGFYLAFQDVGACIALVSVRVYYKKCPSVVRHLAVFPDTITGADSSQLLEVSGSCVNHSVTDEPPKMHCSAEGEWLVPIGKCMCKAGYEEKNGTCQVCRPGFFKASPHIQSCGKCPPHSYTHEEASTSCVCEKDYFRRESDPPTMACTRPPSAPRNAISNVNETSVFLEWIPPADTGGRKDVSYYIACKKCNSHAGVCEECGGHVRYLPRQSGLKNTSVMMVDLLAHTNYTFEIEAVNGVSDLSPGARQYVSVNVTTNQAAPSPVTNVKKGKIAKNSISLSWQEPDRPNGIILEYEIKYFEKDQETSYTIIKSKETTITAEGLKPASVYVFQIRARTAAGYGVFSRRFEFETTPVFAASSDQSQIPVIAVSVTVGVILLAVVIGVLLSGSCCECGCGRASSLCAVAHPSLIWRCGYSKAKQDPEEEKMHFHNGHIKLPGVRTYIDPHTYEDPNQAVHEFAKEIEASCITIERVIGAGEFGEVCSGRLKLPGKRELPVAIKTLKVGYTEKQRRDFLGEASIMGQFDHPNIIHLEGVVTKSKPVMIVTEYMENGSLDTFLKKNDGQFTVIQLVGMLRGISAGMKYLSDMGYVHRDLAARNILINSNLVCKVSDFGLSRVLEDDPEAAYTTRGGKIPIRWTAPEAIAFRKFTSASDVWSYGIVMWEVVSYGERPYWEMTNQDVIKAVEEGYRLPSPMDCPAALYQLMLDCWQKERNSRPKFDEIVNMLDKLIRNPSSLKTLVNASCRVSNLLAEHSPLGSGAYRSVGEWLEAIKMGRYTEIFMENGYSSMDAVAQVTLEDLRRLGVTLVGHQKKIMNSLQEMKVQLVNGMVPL

Myosin-14 = Myosin-14 (Homo sapiens, UniProt Q7Z406)
Also: in the data inactive means no Kd found up to 30 µM.

| Kd [1] | Kd [2] | Kd [3] | Kd (Activin receptor type-1B) | Kd [4] | Kd [5] | Kd [6] | Kd [7] | Kd (Ephrin type-A receptor 5) | Kd (Myosin-14) | SMILES |
| --- | --- | --- | --- | --- | --- | --- | --- | --- | --- | --- |
| > 30 µM (inactive) | > 30 µM (inactive) | > 30 µM (inactive) | > 30 µM (inactive) | > 30 µM (inactive) | > 30 µM (inactive) | > 30 µM (inactive) | > 30 µM (inactive) | > 30 µM (inactive) | > 30 µM (inactive) | COc1cc(Nc2ncc(F)c(Nc3ccc4c(n3)N(COP(=O)(O)O)C(=O)C(C)(C)O4)n2)cc(OC)c1OC [FOSTAMATINIB] |
| > 30 µM (inactive) | > 30 µM (inactive) | > 30 µM (inactive) | > 30 µM (inactive) | > 30 µM (inactive) | > 30 µM (inactive) | > 30 µM (inactive) | > 30 µM (inactive) | > 30 µM (inactive) | > 30 µM (inactive) | O=S(=O)(c1cccc2c(O)nccc12)N1CCCNCC1 [HYDROXYFASUDIL] |
| > 30 µM (inactive) | > 30 µM (inactive) | 4.13 µM (active) | > 30 µM (inactive) | > 30 µM (inactive) | > 30 µM (inactive) | > 30 µM (inactive) | > 30 µM (inactive) | > 30 µM (inactive) | > 30 µM (inactive) | C#Cc1cccc(Nc2ncnc3cc4c(cc23)OCCOCCOCCO4)c1 [ICOTINIB] |
| > 30 µM (inactive) | > 30 µM (inactive) | > 30 µM (inactive) | > 30 µM (inactive) | > 30 µM (inactive) | > 30 µM (inactive) | > 30 µM (inactive) | > 30 µM (inactive) | > 30 µM (inactive) | > 30 µM (inactive) | COc1cc2ncnc3c2cc1OCCCCCN(C)Cc1ccc(Br)cc1N3 [JNJ-26483327] |
| > 30 µM (inactive) | > 30 µM (inactive) | > 30 µM (inactive) | 0.549 µM (active) | > 30 µM (inactive) | > 30 µM (inactive) | > 30 µM (inactive) | > 30 µM (inactive) | > 30 µM (inactive) | > 30 µM (inactive) | COc1cccc2cc(-c3nc([C@H]4CC[C@H](C(=O)O)CC4)n4ncnc(N)c34)[nH]c12 [OSI-027] |
| > 30 µM (inactive) | > 30 µM (inactive) | > 30 µM (inactive) | > 30 µM (inactive) | > 30 µM (inactive) | > 30 µM (inactive) | > 30 µM (inactive) | > 30 µM (inactive) | > 30 µM (inactive) | > 30 µM (inactive) | O=C(Nc1ccc(OC(F)(F)F)cc1)c1sccc1NCc1ccnc2ccccc12 [OSI-930] |
| > 30 µM (inactive) | > 30 µM (inactive) | > 30 µM (inactive) | > 30 µM (inactive) | > 30 µM (inactive) | > 30 µM (inactive) | > 30 µM (inactive) | > 30 µM (inactive) | > 30 µM (inactive) | > 30 µM (inactive) | O=C(NC[C@H](O)CO)c1ccncc1Nc1ccc(I)cc1F [PIMASERTIB] |
| > 30 µM (inactive) | > 30 µM (inactive) | > 30 µM (inactive) | > 30 µM (inactive) | > 30 µM (inactive) | > 30 µM (inactive) | > 30 µM (inactive) | > 30 µM (inactive) | > 30 µM (inactive) | > 30 µM (inactive) | CC(C)(O)CC(=O)NCCn1ccc2ncnc(Nc3ccc(Oc4cccc(C(F)(F)F)c4)c(Cl)c3)c21 [TAK-285] |
| > 30 µM (inactive) | > 30 µM (inactive) | > 30 µM (inactive) | > 30 µM (inactive) | > 30 µM (inactive) | > 30 µM (inactive) | > 30 µM (inactive) | > 30 µM (inactive) | > 30 µM (inactive) | > 30 µM (inactive) | Cc1cc(C(=O)Nc2cc(Oc3ccc4nc(NC(=O)C5CC5)cn4n3)ccc2C)n(C)n1 [TAK-593] |
| > 30 µM (inactive) | > 30 µM (inactive) | > 30 µM (inactive) | > 30 µM (inactive) | > 30 µM (inactive) | > 30 µM (inactive) | > 30 µM (inactive) | > 30 µM (inactive) | > 30 µM (inactive) | > 30 µM (inactive) | Cc1cc(-c2cc(OC(=O)c3ccccc3)ccc2Cl)cc2nnc(Nc3ccc(OCCN4CCCC4)cc3)nc12 [TG100-801] |
| > 30 µM (inactive) | > 30 µM (inactive) | > 30 µM (inactive) | > 30 µM (inactive) | > 30 µM (inactive) | > 30 µM (inactive) | > 30 µM (inactive) | > 30 µM (inactive) | > 30 µM (inactive) | > 30 µM (inactive) | C[C@@H]1COC(Nc2ccc3ncnc(Nc4ccc(OCc5nccs5)c(Cl)c4)c3c2)=N1 [VARLITINIB] |

| SMILES | Kd [1] | Kd [2] | Kd [3] | Kd (Activin receptor type-1B) | Kd [4] | Kd [5] | Kd [6] | Kd [7] | Kd (Ephrin type-A receptor 5) | Kd (Myosin-14) |
| --- | --- | --- | --- | --- | --- | --- | --- | --- | --- | --- |
| CNC(=O)c1ccc(Nc2ncc(C(F)(F)F)c(NCc3nccnc3N(C)S(C)(=O)=O)n2)cc1 [DEFACTINIB] | > 30 µM (inactive) | > 30 µM (inactive) | > 30 µM (inactive) | > 30 µM (inactive) | > 30 µM (inactive) | > 30 µM (inactive) | > 30 µM (inactive) | > 30 µM (inactive) | > 30 µM (inactive) | > 30 µM (inactive) |
| O=S(=O)(c1cccc2cnccc12)N1CCCNCC1 [FASUDIL] | > 30 µM (inactive) | > 30 µM (inactive) | > 30 µM (inactive) | > 30 µM (inactive) | > 30 µM (inactive) | > 30 µM (inactive) | > 30 µM (inactive) | > 30 µM (inactive) | > 30 µM (inactive) | > 30 µM (inactive) |
| CCc1nc(C(N)=O)c(Nc2ccc(N3CCC(N4CCN(C)CC4)CC3)c(OC)c2)nc1NC1CCOCC1 [GILTERITINIB] | 2.65 µM (active) | 0.208 µM | > 30 µM (inactive) | > 30 µM (inactive) | > 30 µM (inactive) | 0.207 µM (active) | 5.48 µM | > 30 µM (inactive) | > 30 µM (inactive) | > 30 µM (inactive) |
| Cc1c(Cn2c(C)nc3c(C(=O)O)cc(N4CCOCC4)cc32)cccc1C(F)(F)F [GSK-2636771] | > 30 µM (inactive) | > 30 µM (inactive) | > 30 µM (inactive) | > 30 µM (inactive) | > 30 µM (inactive) | > 30 µM (inactive) | > 30 µM (inactive) | > 30 µM (inactive) | > 30 µM (inactive) | > 30 µM (inactive) |
| COc1cc(F)c(F)c(Nc2ccc(I)cc2F)c1NS(=O)(=O)C1(C[C@H](O)CO)CC1 [REFAMETINIB] | > 30 µM (inactive) | > 30 µM (inactive) | > 30 µM (inactive) | > 30 µM (inactive) | > 30 µM (inactive) | > 30 µM (inactive) | > 30 µM (inactive) | > 30 µM (inactive) | > 30 µM (inactive) | > 30 µM (inactive) |
| CN1CCN(c2nc(C3=C(c4c[nH]c5ccccc45)C(=O)NC3=O)c3ccccc3n2)CC1 [SOTRASTAURIN] | > 30 µM (inactive) | > 30 µM (inactive) | > 30 µM (inactive) | > 30 µM (inactive) | > 30 µM (inactive) | > 30 µM (inactive) | > 30 µM (inactive) | > 30 µM (inactive) | > 30 µM (inactive) | > 30 µM (inactive) |
